Results taken from article PMC10303271, “Synthesis and Receptor Binding Studies of α5 GABAAR Selective Novel Imidazodiazepines Targeted for Psychiatric and Cognitive Disorders” (Molecules, 2023).

Key:
hERG channels = target: T1, hERG channels (Homo sapiens, UniProt Q12809); assay: PDSP radioligand binding at hERG; conditions: primary binding, 10,000 nM; last figure of the line = mean of the 4 before it
T1 construct: purchased NIMH Psychoactive Drug Screening Program (PDSP)
Experimental: (§1) To determine if any off-target receptor-binding effects are present, all the novel ligands were sent to the National Institute of Mental Health (NIMH), Psychoactive Drug Screening Program (PDSP). The ligands were screened over a panel of 47 receptors, ion channels, and transporters to determine any other possible interactions with […]. The hERG-binding was also determined. […] No binding of the test compounds to calcium channels was observed. […] It is necessary to screen the compounds for hERG-binding during the early process of drug discovery. The unintentional binding of many drugs to hERG can cause blockade of hERG K+ channels in the heart, which can cause many side effects including cardiac arrhythmias and sudden death. […] All of the α5 imidazodiazepines were tested for hERG-binding.
(§2) The NIMH PDSP assay protocol book [https://kidbdev.med.unc.edu/databases/PDSP%20Protocols%20II%202013-03-28.pdf accessed on 23 April 2023]. describes the protocols for primary and secondary radio-ligand binding assays. These assays were carried out in a final volume of 125 µL per well in the appropriate binding buffer.
(§3) The binding of a ligand to a receptor, ion channel, or transporter was determined in the […] of 10 µM of the appropriate reference compound. […] Plates were incubated in the dark for 90 min at rt, and the reactions were stopped by vacuum filtration onto 0.3% polyethyleneimine (PEI) soaked 96-well filter mats using a 96-well Filtermateharvester. This was followed by three washes with cold PBS buffer. Radioactivity was then counted on a Microbeta counter. Nonlinear regression was used to analyze the data with N = 6 replicates.

5-HT4 = target: T2, 5-HT4 (Homo sapiens, UniProt Q13639); assay: PDSP primary binding 5-HT4; conditions: 1.5 h; primary binding, 10,000 nM; last figure of the line = mean of the 4 before it; read-out: 5-HT4, PDSP raw data, mean
T2 construct: purchased NIMH Psychoactive Drug Screening Program (PDSP)
Experimental: as §1, §2, §3

Alpha1A = target: T3, Alpha1A (Homo sapiens, UniProt P35348); assay: PDSP primary binding Alpha1A; conditions: 1.5 h; primary binding, 10,000 nM; last figure of the line = mean of the 4 before it; read-out: Alpha1A, PDSP raw data, mean
T3 construct: purchased NIMH Psychoactive Drug Screening Program (PDSP)
T3 sequence (P35348 1-466): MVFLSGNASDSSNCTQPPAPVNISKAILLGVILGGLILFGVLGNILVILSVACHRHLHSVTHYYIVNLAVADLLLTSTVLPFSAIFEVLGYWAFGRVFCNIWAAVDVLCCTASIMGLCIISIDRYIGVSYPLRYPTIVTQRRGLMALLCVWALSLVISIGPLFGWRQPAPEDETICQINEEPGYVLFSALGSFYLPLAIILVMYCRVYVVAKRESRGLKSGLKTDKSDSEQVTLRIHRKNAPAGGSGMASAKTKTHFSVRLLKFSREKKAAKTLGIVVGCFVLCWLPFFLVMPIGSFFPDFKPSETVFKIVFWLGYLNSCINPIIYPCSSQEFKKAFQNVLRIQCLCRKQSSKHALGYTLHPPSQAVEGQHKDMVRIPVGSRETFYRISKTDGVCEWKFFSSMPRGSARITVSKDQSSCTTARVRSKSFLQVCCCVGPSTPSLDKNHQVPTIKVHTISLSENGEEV
Experimental: as §1, §2, §3

Alpha1D = target: T4, Alpha1D (Homo sapiens, UniProt P25100); assay: PDSP primary binding Alpha1D; conditions: 1.5 h; primary binding, 10,000 nM; last figure of the line = mean of the 4 before it; read-out: Alpha1D, PDSP raw data, mean
T4 construct: purchased NIMH Psychoactive Drug Screening Program (PDSP)
T4 sequence (P25100 1-572): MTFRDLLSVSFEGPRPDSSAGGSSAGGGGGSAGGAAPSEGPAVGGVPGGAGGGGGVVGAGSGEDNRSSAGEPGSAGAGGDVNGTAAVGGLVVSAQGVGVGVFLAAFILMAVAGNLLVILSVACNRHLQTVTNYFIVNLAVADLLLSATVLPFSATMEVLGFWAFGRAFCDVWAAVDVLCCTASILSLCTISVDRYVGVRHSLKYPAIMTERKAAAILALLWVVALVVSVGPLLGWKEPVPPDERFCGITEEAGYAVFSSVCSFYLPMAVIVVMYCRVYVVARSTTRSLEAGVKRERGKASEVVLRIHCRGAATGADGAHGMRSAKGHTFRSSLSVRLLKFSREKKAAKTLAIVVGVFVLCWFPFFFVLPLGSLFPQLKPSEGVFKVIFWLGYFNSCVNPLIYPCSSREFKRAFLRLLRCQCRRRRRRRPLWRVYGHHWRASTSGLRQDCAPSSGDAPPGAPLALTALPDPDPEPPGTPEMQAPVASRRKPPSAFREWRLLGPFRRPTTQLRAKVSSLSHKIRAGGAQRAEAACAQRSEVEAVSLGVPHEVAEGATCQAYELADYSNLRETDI
Experimental: as §1, §2, §3

Beta2 = target: T5, Beta2 (Homo sapiens, UniProt P07550); assay: PDSP primary binding Beta2; conditions: 1.5 h; primary binding, 10,000 nM; last figure of the line = mean of the 4 before it; read-out: Beta2, PDSP raw data, mean
T5 construct: purchased NIMH Psychoactive Drug Screening Program (PDSP)
T5 sequence (P07550 whole entry): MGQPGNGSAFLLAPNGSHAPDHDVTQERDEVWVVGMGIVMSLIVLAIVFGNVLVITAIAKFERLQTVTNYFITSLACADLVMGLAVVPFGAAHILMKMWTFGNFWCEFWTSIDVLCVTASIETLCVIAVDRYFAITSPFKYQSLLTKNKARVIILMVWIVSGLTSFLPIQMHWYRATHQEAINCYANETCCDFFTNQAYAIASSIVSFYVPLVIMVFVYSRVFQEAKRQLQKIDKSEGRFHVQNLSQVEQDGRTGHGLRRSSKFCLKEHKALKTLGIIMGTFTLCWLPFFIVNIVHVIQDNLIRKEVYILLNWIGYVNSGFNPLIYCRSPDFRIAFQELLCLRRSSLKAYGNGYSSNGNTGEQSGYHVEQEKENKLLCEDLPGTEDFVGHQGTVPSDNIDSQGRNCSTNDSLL
Experimental: as §1, §2, §3

H2 = target: T6, H2 (Homo sapiens, UniProt P25021); assay: PDSP primary binding H2; conditions: primary binding, 10,000 nM; last figure of the line = mean of the 4 before it; read-out: H2, PDSP raw data, mean
T6 construct: purchased NIMH Psychoactive Drug Screening Program (PDSP)
Experimental: as §1, §2, §3

NET = target: T7, NET (Homo sapiens, UniProt P23975); assay: PDSP primary binding NET; conditions: primary binding, 10,000 nM; last figure of the line = mean of the 4 before it; read-out: NET, PDSP raw data, mean
T7 construct: purchased NIMH Psychoactive Drug Screening Program (PDSP)
T7 sequence (P23975 whole entry): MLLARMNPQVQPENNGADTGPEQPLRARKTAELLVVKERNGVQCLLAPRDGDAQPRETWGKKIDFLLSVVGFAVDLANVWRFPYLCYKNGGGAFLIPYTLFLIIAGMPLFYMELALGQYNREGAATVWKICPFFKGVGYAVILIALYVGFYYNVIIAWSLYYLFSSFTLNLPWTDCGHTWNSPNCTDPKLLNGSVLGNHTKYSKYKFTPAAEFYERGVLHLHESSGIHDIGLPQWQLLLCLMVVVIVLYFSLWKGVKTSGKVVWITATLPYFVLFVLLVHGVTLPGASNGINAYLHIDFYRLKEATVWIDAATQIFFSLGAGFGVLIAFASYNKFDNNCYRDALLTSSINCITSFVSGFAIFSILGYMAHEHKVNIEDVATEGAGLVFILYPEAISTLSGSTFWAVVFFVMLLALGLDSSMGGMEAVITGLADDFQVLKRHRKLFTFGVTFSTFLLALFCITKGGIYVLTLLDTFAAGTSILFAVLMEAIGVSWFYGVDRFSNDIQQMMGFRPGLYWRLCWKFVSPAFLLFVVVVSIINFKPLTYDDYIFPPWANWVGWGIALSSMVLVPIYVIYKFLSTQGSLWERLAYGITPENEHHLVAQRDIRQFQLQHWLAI
Experimental: as §1, §2, §3

NR2B = assay: PDSP primary binding NR2B; conditions: primary binding, 10,000 nM; last figure of the line = mean of the 4 before it
Experimental: as §1, §2, §3

M3D = target: T8, M3D (Homo sapiens, UniProt P20309, A239G/Y149C); assay: PDSP primary binding M3D; conditions: primary binding, 10,000 nM; last figure of the line = mean of the 4 before it; read-out: M3D, PDSP raw data, mean
T8 construct: purchased NIMH Psychoactive Drug Screening Program (PDSP)
Experimental: as §1, §2, §3

Alpha2Beta2 = target: T9, Alpha2Beta2 (Rattus norvegicus, UniProt P12389+P12390); assay: PDSP primary binding Alpha2Beta2; conditions: primary binding, 10,000 nM; last figure of the line = mean of the 4 before it; read-out: Alpha2Beta2, PDSP raw data, mean
T9 construct: purchased NIMH Psychoactive Drug Screening Program (PDSP)
T9 sequence (P12389 28-511): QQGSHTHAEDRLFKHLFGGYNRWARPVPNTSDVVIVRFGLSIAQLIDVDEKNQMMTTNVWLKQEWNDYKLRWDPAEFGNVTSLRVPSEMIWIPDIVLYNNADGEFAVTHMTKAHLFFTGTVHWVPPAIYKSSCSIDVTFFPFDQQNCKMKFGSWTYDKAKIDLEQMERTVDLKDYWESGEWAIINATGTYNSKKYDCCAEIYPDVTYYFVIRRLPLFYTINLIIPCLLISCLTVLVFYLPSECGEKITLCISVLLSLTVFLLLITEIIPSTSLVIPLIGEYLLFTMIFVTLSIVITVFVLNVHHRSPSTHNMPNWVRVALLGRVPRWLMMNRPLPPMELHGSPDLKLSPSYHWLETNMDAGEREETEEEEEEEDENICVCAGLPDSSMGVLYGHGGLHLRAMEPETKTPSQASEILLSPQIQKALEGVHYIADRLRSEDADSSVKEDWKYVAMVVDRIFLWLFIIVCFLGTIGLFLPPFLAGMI
T9 sequence (P12390 25-500): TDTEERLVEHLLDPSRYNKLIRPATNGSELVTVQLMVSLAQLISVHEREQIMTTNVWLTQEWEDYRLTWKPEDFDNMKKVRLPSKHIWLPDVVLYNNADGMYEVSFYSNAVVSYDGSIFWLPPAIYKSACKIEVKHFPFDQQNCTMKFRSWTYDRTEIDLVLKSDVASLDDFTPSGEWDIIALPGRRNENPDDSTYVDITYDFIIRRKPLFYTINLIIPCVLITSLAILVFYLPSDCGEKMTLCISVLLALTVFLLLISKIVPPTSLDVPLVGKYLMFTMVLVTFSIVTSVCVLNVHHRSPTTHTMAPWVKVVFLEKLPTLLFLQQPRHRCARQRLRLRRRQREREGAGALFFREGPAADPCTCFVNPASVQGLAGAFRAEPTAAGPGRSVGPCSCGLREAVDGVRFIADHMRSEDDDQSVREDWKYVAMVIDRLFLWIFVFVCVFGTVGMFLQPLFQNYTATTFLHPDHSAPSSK
Experimental: as §1, §2, §3

Alpha3Beta4 = target: T10, Alpha3Beta4 (Rattus norvegicus, UniProt P04757+P12392); assay: PDSP primary binding Alpha3Beta4; conditions: primary binding, 10,000 nM; last figure of the line = mean of the 4 before it; read-out: Alpha3Beta4, PDSP raw data, mean
T10 construct: purchased NIMH Psychoactive Drug Screening Program (PDSP)
T10 sequence (P04757 26-499): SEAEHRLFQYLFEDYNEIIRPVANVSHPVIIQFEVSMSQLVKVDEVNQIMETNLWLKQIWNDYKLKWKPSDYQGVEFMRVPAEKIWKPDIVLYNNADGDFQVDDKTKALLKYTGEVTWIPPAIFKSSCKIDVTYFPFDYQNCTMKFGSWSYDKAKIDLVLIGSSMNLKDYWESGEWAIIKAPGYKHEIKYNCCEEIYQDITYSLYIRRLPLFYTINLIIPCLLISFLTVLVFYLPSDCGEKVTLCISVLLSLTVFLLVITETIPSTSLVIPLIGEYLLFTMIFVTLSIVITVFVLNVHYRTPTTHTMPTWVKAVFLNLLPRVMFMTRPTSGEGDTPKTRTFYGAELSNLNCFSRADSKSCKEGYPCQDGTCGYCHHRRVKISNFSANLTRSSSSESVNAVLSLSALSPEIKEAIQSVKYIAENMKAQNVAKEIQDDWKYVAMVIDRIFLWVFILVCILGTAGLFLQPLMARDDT
T10 sequence (P12392 21-495): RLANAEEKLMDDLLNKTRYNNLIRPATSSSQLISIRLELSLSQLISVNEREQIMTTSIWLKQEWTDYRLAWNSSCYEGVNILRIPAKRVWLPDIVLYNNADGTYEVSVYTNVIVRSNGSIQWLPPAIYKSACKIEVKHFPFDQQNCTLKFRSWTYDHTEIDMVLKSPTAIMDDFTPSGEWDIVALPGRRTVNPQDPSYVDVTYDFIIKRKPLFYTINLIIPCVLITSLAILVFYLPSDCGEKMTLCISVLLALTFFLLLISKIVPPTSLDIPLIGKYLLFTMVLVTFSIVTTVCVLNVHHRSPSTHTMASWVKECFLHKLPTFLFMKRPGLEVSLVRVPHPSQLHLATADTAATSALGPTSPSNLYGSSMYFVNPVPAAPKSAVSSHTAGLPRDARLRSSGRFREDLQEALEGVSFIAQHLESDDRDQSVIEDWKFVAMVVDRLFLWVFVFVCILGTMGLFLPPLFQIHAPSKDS
Experimental: as §1, §2, §3

Alpha4Beta2 = target: T11, Alpha4Beta2 (Rattus norvegicus, UniProt P09483+P12390); assay: PDSP primary binding Alpha4Beta2; conditions: primary binding, 10,000 nM; last figure of the line = mean of the 4 before it; read-out: Alpha4Beta2, PDSP raw data, mean
T11 construct: purchased NIMH Psychoactive Drug Screening Program (PDSP)
T11 sequence (P09483 31-630): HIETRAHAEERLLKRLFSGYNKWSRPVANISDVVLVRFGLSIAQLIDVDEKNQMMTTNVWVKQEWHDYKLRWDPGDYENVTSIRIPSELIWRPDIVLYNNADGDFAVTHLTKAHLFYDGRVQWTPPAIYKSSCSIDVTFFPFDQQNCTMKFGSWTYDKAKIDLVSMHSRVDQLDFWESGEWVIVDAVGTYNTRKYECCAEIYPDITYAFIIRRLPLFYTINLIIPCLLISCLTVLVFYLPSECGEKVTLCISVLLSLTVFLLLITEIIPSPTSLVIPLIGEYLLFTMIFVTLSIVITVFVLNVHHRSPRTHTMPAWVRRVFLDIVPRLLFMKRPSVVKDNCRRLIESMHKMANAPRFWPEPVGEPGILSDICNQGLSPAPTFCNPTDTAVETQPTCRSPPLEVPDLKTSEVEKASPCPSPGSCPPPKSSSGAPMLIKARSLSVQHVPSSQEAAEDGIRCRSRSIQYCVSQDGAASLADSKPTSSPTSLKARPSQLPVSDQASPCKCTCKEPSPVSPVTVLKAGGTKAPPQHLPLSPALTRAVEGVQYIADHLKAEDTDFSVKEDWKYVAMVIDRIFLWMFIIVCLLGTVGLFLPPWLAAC
T11 sequence (P12390 25-500): as the sequence (P12390 25-500) above
Experimental: as §1, §2, §3

T1 sequence (Q12809 whole entry): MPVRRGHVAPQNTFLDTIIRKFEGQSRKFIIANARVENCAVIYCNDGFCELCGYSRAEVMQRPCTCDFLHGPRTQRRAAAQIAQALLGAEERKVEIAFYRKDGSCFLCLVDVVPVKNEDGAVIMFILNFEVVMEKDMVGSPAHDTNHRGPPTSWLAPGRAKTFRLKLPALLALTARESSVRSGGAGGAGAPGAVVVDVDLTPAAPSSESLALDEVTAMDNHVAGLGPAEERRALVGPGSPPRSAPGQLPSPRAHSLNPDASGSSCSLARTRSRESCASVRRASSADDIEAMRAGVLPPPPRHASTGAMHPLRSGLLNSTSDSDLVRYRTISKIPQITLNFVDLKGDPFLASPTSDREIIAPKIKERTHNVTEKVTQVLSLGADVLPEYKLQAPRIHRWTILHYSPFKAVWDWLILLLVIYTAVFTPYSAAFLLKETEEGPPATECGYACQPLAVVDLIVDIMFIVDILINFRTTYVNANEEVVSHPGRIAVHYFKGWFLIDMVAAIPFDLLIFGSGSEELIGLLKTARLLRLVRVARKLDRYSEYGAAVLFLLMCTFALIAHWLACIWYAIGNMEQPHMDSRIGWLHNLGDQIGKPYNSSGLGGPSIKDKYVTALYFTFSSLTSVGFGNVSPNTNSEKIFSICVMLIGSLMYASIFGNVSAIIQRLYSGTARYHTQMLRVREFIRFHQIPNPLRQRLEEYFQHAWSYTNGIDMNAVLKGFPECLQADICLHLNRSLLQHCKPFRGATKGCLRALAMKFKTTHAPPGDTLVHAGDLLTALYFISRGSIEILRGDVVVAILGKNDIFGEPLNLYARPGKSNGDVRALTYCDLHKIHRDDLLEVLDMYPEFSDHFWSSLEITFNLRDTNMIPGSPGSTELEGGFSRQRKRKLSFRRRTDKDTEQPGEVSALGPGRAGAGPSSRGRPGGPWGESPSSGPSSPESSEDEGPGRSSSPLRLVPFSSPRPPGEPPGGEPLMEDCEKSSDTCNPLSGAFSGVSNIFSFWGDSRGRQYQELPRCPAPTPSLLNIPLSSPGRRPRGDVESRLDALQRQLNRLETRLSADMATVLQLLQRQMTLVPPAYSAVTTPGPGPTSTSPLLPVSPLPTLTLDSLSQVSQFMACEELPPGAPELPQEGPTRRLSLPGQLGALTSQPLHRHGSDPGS

| Compound | HERG, PDSP raw data, mean (hERG channels) | inhibition at 10 µM (5-HT4) | inhibition at 10 µM (Alpha1A) | inhibition at 10 µM (Alpha1D) | inhibition at 10 µM (Beta2) | inhibition at 10 µM (H2) | inhibition at 10 µM (NET) | NR2B, PDSP raw data, mean (NR2B) | inhibition at 10 µM (M3D) | inhibition at 10 µM (Alpha2Beta2) | inhibition at 10 µM (Alpha3Beta4) | inhibition at 10 µM (Alpha4Beta2) |
| --- | --- | --- | --- | --- | --- | --- | --- | --- | --- | --- | --- | --- |
| CC(C)c1noc(-c2ncn3c2[C@@H](C)N=C(c2ccccc2F)c2cc(Cl)ccc2-3)n1 [Compound 37, (R)-5-(8-Chloro-6-(2′-fluorophenyl)-4-methyl-4H-benzo[f]imidazo[1,5-a][1,4]diazepin-3-yl)-3-isopropyl-1,2,4-oxadiazole] | 20.73% | 48% | -8.38% | 4.09% | 6.55% | 1.66% | 9.04% | 34.46% | -23.4% | 3.29% | 18.8% | 6.16% |
| C[C@H]1N=C(c2ccccc2F)c2cc(Cl)ccc2-n2cnc(-c3nc(C4CC4)no3)c21 [Compound 38, (R)-5-(8-Chloro-6-(2′-fluorophenyl)-4-methyl-4H-benzo[f]imidazo[1,5-a][1,4]diazepin-3-yl)-3-cyclopropyl-1,2,4-oxadiazole] | 9.37% | 38.7% | 1.65% | -2.84% | 1.75% | 6.81% | -0.22% | 31.49% | 6.92% | 1.44% | 12.4% | 1.67% |
| C#Cc1ccc2c(c1)C(c1ccccc1Cl)=N[C@H](C)c1c(C(=O)NC)ncn1-2 [Compound 21, (R)-6-(2′-Chlorophenyl)-8-ethynyl-N,4-dimethyl-4H-benzo[f]imidazo[1,5-a][1,4]diazepine-3-carboxamide] | -5.73% | 4% | -5.44% | -5.53% | -0.28% | -2.07% | -2.45% | -8.82% | 0.48% | 3.88% | 11.3% | 4.88% |
| C#Cc1ccc2c(c1)C(c1ccccc1Cl)=N[C@H](C)c1c(C(=O)N(C)CC)ncn1-2 [Compound 29] | -1.55% | -6.11% | 4.97% | -11.9% | -7.07% | -0.28% | -2.63% | -14.08% | 6.78% | -2.89% | 0.02% | -1.16% |
| CCc1noc(-c2ncn3c2[C@@H](C)N=C(c2ccccc2F)c2cc(C4CC4)ccc2-3)n1 [Compound 46, (R)-5-(8-Cyclopropyl-6-(2′-fluorophenyl)-4-methyl-4H-benzo[f]imidazo[1,5-a][1,4]diazepin-3-yl)-3-ethyl-1,2,4-oxadiazole] | 4.34% | 3.05% | 31.8% | 34.9% | -6.06% | 6.98% | 24.3% | 32.88% | 9.97% | -2.72% | 10.4% | 4.59% |
| CCc1noc(-c2ncn3c2CN=C(c2ccccc2F)c2cc(C4CC4)ccc2-3)n1 [Compound 44, 5-(8-Cyclopropyl-6-(2′-fluorophenyl)-4H-benzo[f]imidazo[1,5-a][1,4]diazepin-3-yl)-3-ethyl-1,2,4-oxadiazole] | 33.24% | -9.26% | 21.4% | 1.28% | 3.97% | 1.55% | 4.9% | 21.74% | 11.8% | -6.67% | 7.56% | -1.95% |
| CCc1noc(-c2ncn3c2[C@@H](C)N=C(c2ccccc2F)c2cc(Cl)ccc2-3)n1 [Compound 36, (R)-5-(8-Chloro-6-(2′-fluorophenyl)-4-methyl-4H-benzo[f]imidazo[1,5-a][1,4]diazepin-3-yl)-3-ethyl-1,2,4-oxadiazole] | -1.15% | -12.3% | -0.34% | -14.3% | 2.67% | 5.61% | -2.36% | 14.42% | -2.01% | -6.7% | 15.6% | -1.38% |
| CCc1noc(-c2ncn3c2[C@@H](C)N=C(c2ccccc2F)c2cc(-c4ccccc4)ccc2-3)n1 [Compound 35, (R)-3-Ethyl-5-(6-(2′-fluorophenyl)-4-methyl-8-phenyl-4H-benzo[f]imidazo[1,5-a][1,4]diazepin-3-yl)-1,2,4-oxadiazole] | 37.34% | -0.48% | 20.8% | -0.4% | 0.34% | -10.1% | 10.2% | 24.81% | 4.49% | 4.18% | 12% | 0.7% |
